The record followed here is patent publication US20070167421A1, “Pyrimidine derivatives and use thereof as agricultural and horticultural fungicides” (priority 2004, published 2007).

The structures appear in SMILES notation.

For series [1], the system named is nursery stock (variety: OREGON SUPER DELICIOUS) leaves. The experiment in a line: Phytotoxicity studied in Test Example 4. Format: in vivo. The conditions noted are these: 500 ppm, spray on detached leaves of nursery stock. The method, then:
A nursery stock (variety: OREGON SUPER DELICIOUS) was cultivated in a plastic pot of 30 cm diameter and its leaves, which had reached at perfect extension stage, were detached from the petiole, were cultivated under hydroponic condition by using a water-holding carrier. After that, a diluted solution of an active compound of the prescribed concentration, prepared in a similar manner as in the above-mentioned Test Example 1, was sprayed to the leaves in an amount of 6 ml per 3 leaves. One day after the spraying, a suspension of spores of artificially cultured Alternaria mali was inoculated to the leaves by spraying (once) and infected by transferring them into a moisturizing box and keeping at 20° C. Four days after the inoculation, the contraction rate per pot was classified and evaluated according to the following standard and the controlling value (%) was obtained. Phytotoxicity was also studied at the same time. This test is an average of the results of 1 section 3 leaves.

The test system of series [2] is Cucumber (variety: SAGAMI HANPAKU). The experiment in a line: Phytotoxicity studied in Test Example 2. The conditions noted are these: 500 ppm, foliage spray. Format: in vivo. As for the experimental part:
Cucumber (variety: SAGAMI HANPAKU) was cultivated in a plastic pot of 4 cm diameter. A diluted solution of an active compound of the prescribed concentration, prepared in a similar manner as in the above-mentioned Test Example 1, was sprayed to seedlings reached to cotyledon in an amount of 6 ml per 3 pots. One day after the spraying, a suspension of spores, prepared by washing spores of Sphaerotheca fuliginea taken from previously infected cucumber into distilled water, was inoculated to the plant to be treated by spraying (once) and infected in a green house. Seven days after the inoculation, the contraction rate per pot was classified and evaluated to obtain the controlling value (%). Phytotoxicity was also studied at the same time. This test is an average of the results of 1 section 3 pots.

Series [3] concerns Paddy rice (variety: KOSHIHIKARI). The settings on record: in vivo.
The next series concerns Tomato (variety: REGINA). The conditions noted are these: in vivo.

Turning to `Clc1cccc(Cc2c(Cl)ncnc2N2CCSC2)c1` [Compound 1-41], in series [1], the Phytotoxicity result was “No phytotoxicity was observed”. As to `CC1CCCN1c1ncnc(Cl)c1Cc1cccc(Cl)c1` (stereo not shown) [Compound 1-15], the Phytotoxicity result in series [2] and in series [3] was “No phytotoxicity was observed” throughout. As to `CC1CCCN1c1ncnc(Cl)c1Cc1cc(F)cc(F)c1` (stereo not shown) [Compound 1-17], the Phytotoxicity result in series [2] and in series [3] was “No phytotoxicity was observed” throughout. As to `CC1CCCN1c1ncnc(Cl)c1Cc1ccc(F)c(F)c1` (stereo not shown) [Compound 1-16], the Phytotoxicity entry in series [2] and in series [3] was “No phytotoxicity was observed” throughout. On to `CC1CCCN1c1ncnc(Cl)c1Cc1ccccc1` (stereo not shown) [Compound 1-11], for which the Phytotoxicity result in series [2] and in series [3] was “No phytotoxicity was observed” throughout. For the molecule `Fc1ccc(Cc2c(Cl)ncnc2N2CCCC2)cc1` [Compound 1-68], the Phytotoxicity result in series [2] and in series [3] was “No phytotoxicity was observed” throughout.

Regarding `Cc1cc(C)n(-c2nc(C)nc(Cl)c2Cc2ccccc2)n1` [Compound 1-523], the Phytotoxicity result in series [1] is reported as “No phytotoxicity was observed”. `CC1C=CC(C)N1c1ncnc(Cl)c1Cc1ccccc1` (stereo not shown) [Compound 1-36]: the Phytotoxicity result in series [1] and in series [3] was “No phytotoxicity was observed” each time. As to `CC(C)(C)c1nc(Cl)c(Cc2ccccc2)c(N2CCCC2)n1` [Compound 1-121], in series [1], the Phytotoxicity result was “No phytotoxicity was observed”.

With `CSc1nc(Cl)c(Cc2ccccc2)c(N2CCCC2)n1` [Compound 1-165, 5-benzyl-4-chloro-2-methylthio-6-pyrrolidin-1-yl-pyrimidine], the melting point (as a rule, the temperature of the solid-liquid transition) was 97 to 99 °C. In addition, the Phytotoxicity result in the series with Tomato (variety: REGINA) is listed as “No phytotoxicity was observed”. Regarding `COc1ncnc(N2CCCC2)c1Cc1cccc(F)c1`, the melting point is 74 to 76 °C. Regarding `Clc1ncnc(N2CCCC2)c1Cc1ccccc1` [Compound 1-5, 5-benzyl-4-chloro-6-pyrrolidin-1-yl-pyrimidine], the Phytotoxicity entry (in series [1]; in series [2]; in series [3]; in the series on Tomato (variety: REGINA)) was “No phytotoxicity was observed” in each case. As for `CC1CCCN1c1ncnc(Cl)c1Cc1cccc(F)c1` (stereo not shown) [Compound 1-14], the Phytotoxicity entry in series [1], in series [2] and in series [3] was “No phytotoxicity was observed” in each case.

For the molecule `Fc1cccc(Cc2cncnc2N2CCCC2)c1` [Compound 1-102, 5-(3-fluorobenzyl)-4-pyrrolidin-1-yl-pyrimidine], the melting point was 51 to 54 °C. The Phytotoxicity result in series [1] was “No phytotoxicity was observed”. The Phytotoxicity entry in series [3] is listed as “No phytotoxicity was observed”. With `Clc1ccccc1Cc1c(Cl)ncnc1N1CCCC1` [Compound 1-46], the Phytotoxicity entry in series [1] and in series [2] was “No phytotoxicity was observed” each time. For the molecule `Fc1cc(F)cc(Cc2c(Cl)ncnc2N2CCCC2)c1` [Compound 1-87], the Phytotoxicity entry in series [2] and in series [3] was “No phytotoxicity was observed” each time.

As for `Clc1nc(-n2cncn2)nc(N2CCCC2)c1Cc1ccccc1` [Compound 1-435], the Phytotoxicity result in series [1] is recorded as “No phytotoxicity was observed”.

With `Fc1ccccc1Cc1c(Cl)ncnc1N1CCCC1` [Compound 1-45], in series [3], the Phytotoxicity entry is on record as “No phytotoxicity was observed”. As to `Clc1nc(-c2ccncc2)nc(N2CCCC2)c1Cc1ccccc1` [Compound 1-304], the Phytotoxicity entry in series [1] is on record as “No phytotoxicity was observed”. Take `Fc1ccc(Cc2c(Cl)ncnc2N2CCCC2)cc1F` [Compound 1-86]: the Phytotoxicity result in series [2] and in series [3] was “No phytotoxicity was observed” throughout.

As to `OC[C@H]1CCCN1c1ncnc(Cl)c1Cc1ccccc1` [Compound 1-22], the Phytotoxicity result in series [3] is given as “No phytotoxicity was observed”. With `CC(c1ccccc1)c1c(Cl)ncnc1N1CCCC1` (racemic) [Compound 1-6], the Phytotoxicity result in series [2] is reported as “No phytotoxicity was observed”. In the case of `Clc1ncnc(N2CCSC2)c1Cc1ccccc1` [Compound 1-37], the Phytotoxicity result in series [3] was “No phytotoxicity was observed”. On to `Fc1cccc(Cc2c(Cl)ncnc2N2CCCC2)c1` [Compound 1-56, 4-Chloro-5-(3-fluorobenzyl)-6-pyrrolidin-1-yl-pyrimidine], for which the Phytotoxicity entry in series [1], in series [2] and in series [3] was “No phytotoxicity was observed” throughout.

As for `Clc1ncnc(N2CC=CC2)c1Cc1ccccc1` [Compound 1-33], the Phytotoxicity result in series [1] and in series [3] was “No phytotoxicity was observed” each time. Regarding `CS(=O)(=O)c1nc(Cl)c(Cc2ccccc2)c(N2CCCC2)n1`, the melting point lay in the range of 136 to 138 °C. On to `Clc1ncnc(N2CCC=N2)c1Cc1ccccc1` [Compound 1-42], for which the Phytotoxicity entry in series [1] is “No phytotoxicity was observed”. In the case of `Clc1cccc(Cc2c(Cl)ncnc2N2CCCC2)c1` [Compound 1-57], the Phytotoxicity entry in series [2] and in series [3] was “No phytotoxicity was observed” in each case. Regarding `Clc1nc(-c2ccccn2)nc(N2CCCC2)c1Cc1ccccc1` [Compound 1-238], the Phytotoxicity entry (in series [3]; in the series with Tomato (variety: REGINA)) was “No phytotoxicity was observed” in each case. Regarding `Clc1nc(-c2cnccn2)nc(N2CCCC2)c1Cc1ccccc1` [Compound 1-311], the Phytotoxicity result in series [1] is listed as “No phytotoxicity was observed”.
